# Laboratory results as given in patent publication US12209102B2, “Heterocyclic compounds and uses thereof” (Kumquat Biosciences Inc., priority 2022, dated 2025).
# How the values were obtained:
# [1] = target: T1, K-Ras G12D (Homo sapiens, UniProt P01116, G12D); experiment: HTRF resonance energy transfer assay, K-Ras G12D / SOS1 interaction; format: biochemical; conditions: HTRF assay of Example 5; read-out: IC50 against K-Ras G12D
# T1 construct: made in house; host or cells: E. coli BL21 (DE3)
# T1 sequence (P01116 1-188 isoform P01116-2 G12D): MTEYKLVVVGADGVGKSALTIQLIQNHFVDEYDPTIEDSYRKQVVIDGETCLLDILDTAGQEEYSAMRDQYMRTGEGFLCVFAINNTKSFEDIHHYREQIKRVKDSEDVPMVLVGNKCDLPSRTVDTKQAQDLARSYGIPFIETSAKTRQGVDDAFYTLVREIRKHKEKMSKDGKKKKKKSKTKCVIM
# In short: (§1)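 Read-out: HTRF 665/620 nm ratio (excitation 337 nm) after roughly 10 min or longer incubation, used to derive IC50. Donor anti-GST-Eu on GST-K-Ras; acceptor anti-6His-XL665 on His-hSOS1. Duplicate dose series from 10 μM down to 0.01 μM.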
# [2] = target: T2, K-Ras G12S (Homo sapiens, UniProt P01116, G12S); experiment: HTRF resonance energy transfer assay, K-Ras G12S / SOS1 interaction; format: biochemical; conditions: HTRF assay of Example 5; read-out: IC50 against K-Ras G12S
# T2 construct: made in house; host or cells: E. coli BL21 (DE3)
# T2 sequence (P01116 1-188 isoform P01116-2 G12S): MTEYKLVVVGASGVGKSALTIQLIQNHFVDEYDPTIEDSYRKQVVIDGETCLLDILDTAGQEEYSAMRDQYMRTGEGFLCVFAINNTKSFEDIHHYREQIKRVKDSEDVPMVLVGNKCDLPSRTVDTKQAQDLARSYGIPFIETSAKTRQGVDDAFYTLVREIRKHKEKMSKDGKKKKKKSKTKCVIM
# In short: as §1
# [3] = target: T3, K-Ras G12V (Homo sapiens, UniProt P01116, G12V); experiment: HTRF resonance energy transfer assay, K-Ras G12V / SOS1 interaction; format: biochemical; conditions: HTRF assay of Example 5; read-out: IC50 against K-Ras G12V
# T3 construct: made in house; host or cells: E. coli BL21 (DE3)
# T3 sequence (P01116 1-188 isoform P01116-2 G12V): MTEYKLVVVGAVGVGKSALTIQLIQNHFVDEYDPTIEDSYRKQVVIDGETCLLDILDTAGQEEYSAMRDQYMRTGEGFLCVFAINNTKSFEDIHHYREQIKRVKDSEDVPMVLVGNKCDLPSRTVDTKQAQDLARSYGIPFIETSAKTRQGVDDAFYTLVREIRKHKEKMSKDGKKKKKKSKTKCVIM
# In short: as §1
# [4] = target: T4, K-Ras WT (Homo sapiens, UniProt P01116); experiment: HTRF resonance energy transfer assay, K-Ras WT / SOS1 interaction; format: biochemical; conditions: HTRF assay of Example 5; read-out: IC50 against K-Ras WT
# T4 construct: made in house; host or cells: E. coli BL21 (DE3)
# T4 sequence (P01116 1-188 isoform P01116-2): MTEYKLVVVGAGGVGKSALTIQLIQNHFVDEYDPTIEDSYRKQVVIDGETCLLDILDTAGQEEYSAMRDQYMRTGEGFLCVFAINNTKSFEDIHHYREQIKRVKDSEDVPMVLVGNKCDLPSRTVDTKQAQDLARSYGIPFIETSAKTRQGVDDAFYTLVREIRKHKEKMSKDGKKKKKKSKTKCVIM
# In short: as §1
# [5] = system: A549 cells; experiment: Ras cellular assay, growth of cells with K-Ras G12S mutation (CellTiter-Glo); format: cell-based; conditions: Homo sapiens, cell growth, Example 9, G12S mutation, read-out: IC50 against A549 cells
# In short: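 A549 cells (K-Ras G12S) in RPMI-1640 with 10% heat-inactivated FBS, seeded e.g. 800 per well in standard or ultra-low-attachment 384-well plates, treated next day with a dilution series (e.g. 10-point, 3-fold). Viability by CellTiter-Glo luminescence about 6 days later; IC50 from four-parameter fit.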
# [6] = system: SW620 cells; experiment: Ras cellular assay, growth of cells with K-Ras G12V mutation (CellTiter-Glo); format: cell-based; conditions: Homo sapiens, SW-620; cell growth, Example 9, G12V mutation; read-out: IC50 against SW620 cells
# In short: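 SW620 (K-Ras G12V) cells, e.g. 800/well in RPMI-1640 with 10% heat-inactivated FBS on standard or ultra-low attachment plates, were dosed the day after plating with e.g. a 10-point 3-fold series. Viability by CellTiter-Glo luminescence about 6 days later; IC50 from four-parameter fit.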
Compound,IC50 [1] [nM],IC50 [2] [nM],IC50 [3] [nM],IC50 [4] [nM],IC50 [5] [nM],IC50 [6] [nM]
"CC(COC(F)F)N1CCOc2c(Cl)c(-c3ccc(F)c4sc(N)c(C#N)c34)c(F)c3nc(OC[C@@]45CCCN4C[C@H](F)C5)nc1c23 (stereo partly drawn) [Compound 973, 2-amino-4-(8-chloro-4-(1-(difluoromethoxy)propan-2-yl)-10-fluoro-2-(((2R,7aS)-2-fluorotetrahydro-1H-pyrrolizin-7a(5H)-yl)methoxy)-5,6-dihydro-4H-[1,4]oxazepino[5,6,7-de]quinazolin-9-yl)-7-fluorobenzo[b]thiophene-3-carbonitrile]",< 100,< 100,< 100,< 100,< 5000,< 5000
"CC1(O)CC(N2CCOc3c(Cl)c(-c4ccc(F)c5sc(N)c(C#N)c45)c(F)c4nc(OC[C@@]56CCCN5C[C@H](F)C6)nc2c34)C1 (stereo partly drawn) [Compound 708, 2-amino-4-(8-chloro-10-fluoro-2-(((2R,7aS)-2-fluorotetrahydro-1H-pyrrolizin-7a(5H)-yl)methoxy)-4-(3-hydroxy-3-methylcyclobutyl)-5,6-dihydro-4H-[1,4]oxazepino[5,6,7-de]quinazolin-9-yl)-7-fluorobenzo[b]thiophene-3-carbonitrile]",< 100,< 100,< 100,< 100,< 5000,< 5000
"N#Cc1c(N)sc2c(F)ccc(-c3c(Cl)c4c5c(nc(OC[C@@]67CCCN6C[C@H](F)C7)nc5c3F)N(C3CCCN(C=O)CC3)CCO4)c12 (stereo partly drawn) [Compound 601, 2-amino-4-(8-chloro-10-fluoro-2-(((2R,7aS)-2-fluorotetrahydro-1H-pyrrolizin-7a(5H)-yl)methoxy)-4-(1-formylazepan-4-yl)-5,6-dihydro-4H-[1,4]oxazepino[5,6,7-de]quinazolin-9-yl)-7-fluorobenzo[b]thiophene-3-carbonitrile]",< 100,< 100,< 100,< 100,< 5000,< 5000
"Cc1cc(N)nc(-c2c(Cl)c3c4c(nc(OC[C@@]56CCCN5C[C@H](F)C6)nc4c2F)N(CC(F)F)CCO3)c1I [Compound 909, 6-(8-chloro-4-(2,2-difluoroethyl)-10-fluoro-2-(((2R,7aS)-2-fluorotetrahydro-1H-pyrrolizin-7a(5H)-yl)methoxy)-5,6-dihydro-4H-[1,4]oxazepino[5,6,7-de]quinazolin-9-yl)-5-iodo-4-methylpyridin-2-amine]",< 100,< 100,< 100,< 100,< 5000,< 5000
"COC1CCCC1N1CCOc2c(Cl)c(-c3ccc(F)c4sc(N)c(C#N)c34)c(F)c3nc(OC[C@@]45CCCN4C[C@H](F)C5)nc1c23 (stereo partly drawn) [Compound 657, 2-amino-4-(8-chloro-10-fluoro-2-(((2R,7aS)-2-fluorotetrahydro-1H-pyrrolizin-7a(5H)-yl)methoxy)-4-(2-methoxycyclopentyl)-5,6-dihydro-4H-[1,4]oxazepino[5,6,7-de]quinazolin-9-yl)-7-fluorobenzo[b]thiophene-3-carbonitrile]",< 100,< 100,< 100,< 100,< 5000,< 5000
"CC(O)CC1COc2c(Cl)c(-c3ccc(F)c4sc(N)c(C#N)c34)c(F)c3nc(OC[C@@]45CCCN4C[C@H](F)C5)nc(c23)N1CC(F)F (stereo partly drawn) [Compound 659, 2-amino-4-(8-chloro-4-(2,2-difluoroethyl)-10-fluoro-2-(((2R,7aS)-2-fluorotetrahydro-1H-pyrrolizin-7a(5H)-yl)methoxy)-5-(2-hydroxypropyl)-5,6-dihydro-4H-[1,4]oxazepino[5,6,7-de]quinazolin-9-yl)-7-fluorobenzo[b]thiophene-3-carbonitrile]",< 100,< 100,< 100,< 100,< 5000,< 5000
"C[C@H](Oc1nc2c3c(c(Cl)c(-c4ccc(F)c5sc(N)c(C#N)c45)c(F)c3n1)OCCN2C1CCCOC1)[C@@H]1CCCN1C (stereo partly drawn) [Compound 880, 2-amino-4-(8-chloro-10-fluoro-2-((S)-1-((S)-1-methylpyrrolidin-2-yl)ethoxy)-4-(tetrahydro-2H-pyran-3-yl)-5,6-dihydro-4H-[1,4]oxazepino[5,6,7-de]quinazolin-9-yl)-7-fluorobenzo[b]thiophene-3-carbonitrile]",< 100,< 100,< 100,< 100,< 5000,< 5000

# Second part, the molecule after the results:
IC50 [1] [nM],IC50 [2] [nM],IC50 [3] [nM],IC50 [4] [nM],IC50 [5] [nM],IC50 [6] [nM],Compound
< 100,< 100,< 100,< 100,< 5000,< 5000,"CN(CCN1CCOc2c(Cl)c(-c3ccc(F)c4sc(N)c(C#N)c34)c(F)c3nc(OC[C@@]45CCCN4C[C@H](F)C5)nc1c23)C(=O)C1COC1 [Compound 1058, N-(2-(9-(2-amino-3-cyano-7-fluorobenzo[b]thiophen-4-yl)-8-chloro-10-fluoro-2-(((2R,7aS)-2-fluorotetrahydro-1H-pyrrolizin-7a(5H)-yl)methoxy)-5,6-dihydro-4H-[1,4]oxazepino[5,6,7-de]quinazolin-4-yl)ethyl)-N-methyloxetane-3-carboxamide]"
< 100,< 100,< 100,< 100,< 5000,< 5000,"N#Cc1c(N)sc2c(F)ccc(-c3c(Cl)c4c5c(nc(OC[C@@]67CCCN6C[C@H](F)C7)nc5c3F)N(CC3CCOCC3)CCO4)c12 [Compound 1067, 2-amino-4-(8-chloro-10-fluoro-2-(((2R,7aS)-2-fluorotetrahydro-1H-pyrrolizin-7a(5H)-yl)methoxy)-4-((tetrahydro-2H-pyran-4-yl)methyl)-5,6-dihydro-4H-[1,4]oxazepino[5,6,7-de]quinazolin-9-yl)-7-fluorobenzo[b]thiophene-3-carbonitrile]"
< 100,< 100,< 100,< 100,< 5000,< 5000,"COCC1CN(CC(F)F)c2nc(OC[C@@]34CCCN3C[C@H](F)C4)nc3c(F)c(-c4ccc(F)c5sc(N)c(C#N)c45)c(Cl)c(c23)O1 (stereo partly drawn) [Compound 1030, 2-amino-4-(8-chloro-4-(2,2-difluoroethyl)-10-fluoro-2-(((2R,7aS)-2-fluorotetrahydro-1H-pyrrolizin-7a(5H)-yl)methoxy)-6-(methoxymethyl)-5,6-dihydro-4H-[1,4]oxazepino[5,6,7-de]quinazolin-9-yl)-7-fluorobenzo[b]thiophene-3-carbonitrile]"
< 100,< 100,< 100,< 100,< 5000,< 5000,"N#Cc1c(N)sc2c(F)ccc(-c3c(Cl)c4c5c(nc(OC[C@@]67CCCN6C[C@H](F)C7)nc5c3F)N(C3CC35CNC5)CCO4)c12 (stereo partly drawn) [Compound 990, 2-amino-4-(8-chloro-10-fluoro-2-(((2R,7aS)-2-fluorotetrahydro-1H-pyrrolizin-7a(5H)-yl)methoxy)-4-(5-azaspiro[2.3]hexan-1-yl)-5,6-dihydro-4H-[1,4]oxazepino[5,6,7-de]quinazolin-9-yl)-7-fluorobenzo[b]thiophene-3-carbonitrile]"
